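Five concentrations, 48 hours, 96-well plates. At the TGI there is no net growth.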
How the values were obtained:
Assay in all cases: NCI-60 cell line screen, 48 h
HCT-116 colon = tested on: HCT-116 colon
UACC-257 melanoma = tested on: UACC-257 melanoma
SF-539 CNS = tested on: SF-539 CNS
SNB-75 CNS = tested on: SNB-75 CNS
HCC-2998 colon = tested on: HCC-2998 colon
SR leukemia = tested on: SR leukemia
OVCAR-5 ovarian = tested on: OVCAR-5 ovarian
TK-10 renal = tested on: TK-10 renal
SK-MEL-28 melanoma = tested on: SK-MEL-28 melanoma
KM12 colon = tested on: KM12 colon
CAKI-1 renal = tested on: CAKI-1 renal
SN12C renal = tested on: SN12C renal
MOLT-4 leukemia = tested on: MOLT-4 leukemia
MDA-N = tested on: MDA-N
MDA-MB-435 = tested on: MDA-MB-435
NCI-H23 lung = tested on: NCI-H23 lung
A549 NSCLC = tested on: A549 NSCLC
RPMI-8226 leukemia = tested on: RPMI-8226 leukemia
ACHN renal = tested on: ACHN renal
SF-295 CNS = tested on: SF-295 CNS

| SMILES | TGI (HCT-116 colon) [µM] | TGI (UACC-257 melanoma) [µM] | TGI (SF-539 CNS) [µM] | TGI (SNB-75 CNS) [µM] | TGI (HCC-2998 colon) [µM] | TGI (SR leukemia) [µM] | TGI (OVCAR-5 ovarian) [µM] | TGI (TK-10 renal) [µM] | TGI (SK-MEL-28 melanoma) [µM] | TGI (KM12 colon) [µM] | TGI (CAKI-1 renal) [µM] | TGI (SN12C renal) [µM] | TGI (MOLT-4 leukemia) [µM] | TGI (MDA-N) [µM] | TGI (MDA-MB-435) [µM] | TGI (NCI-H23 lung) [µM] | TGI (A549 NSCLC) [µM] | TGI (RPMI-8226 leukemia) [µM] | TGI (ACHN renal) [µM] | TGI (SF-295 CNS) [µM] |
| --- | --- | --- | --- | --- | --- | --- | --- | --- | --- | --- | --- | --- | --- | --- | --- | --- | --- | --- | --- | --- |
| CSc1c(C#N)c(O)n(-c2ccc(Cl)cc2)c(=O)c1C#N | > 100 | > 100 | > 100 | > 100 | > 100 | > 100 | > 100 | > 100 | > 100 | > 100 | > 100 | > 100 | > 100 | > 100 | > 100 | > 100 | > 100 | > 100 |  |  |
| Brc1ccc(-c2ccc(-c3ccc(-c4ccc(Br)s4)s3)s2)s1 | > 100 | > 100 | > 100 | > 100 | > 100 | > 100 | > 100 | > 100 | > 100 | > 100 | > 100 | > 100 | > 100 | > 100 | > 100 | > 100 | > 100 | > 100 | > 100 | > 100 |
| CCOC(=O)CSc1[nH]c2nc(C)nc(Cl)c2c1C#N |  | > 10 |  | > 10 | > 10 | > 10 |  | > 10 | > 10 | > 10 | > 10 | > 10 | > 10 | > 10 | > 10 | > 10 | > 10 | > 10 |  | > 10 |
| O=C(c1ccsc1)c1cc2c(s1)C(=O)c1ccsc1C2=O | 0.468 | 0.324 | 0.138 | 0.311 | 1.56 | > 100 | 1.01 | 1.25 | 0.305 | 0.434 | 1.57 | 0.125 | > 100 | 0.0512 | 0.0696 | 0.308 | 1.25 |  | 0.241 | 0.324 |
| NS(=O)(=O)c1cc(S(N)(=O)=O)c(NC(=O)Nc2ccc(Cl)c(Cl)c2)c(Cl)c1Cl | > 100 | > 100 |  |  | > 100 | > 100 | > 100 | > 100 | > 100 | > 100 | > 100 | > 100 | > 100 | > 100 | > 100 | > 100 | > 100 | > 100 | > 100 | > 100 |
| COc1cc(O)c2c(=O)c3ccccc3n(C)c2c1 | > 100 | > 100 | > 100 |  | > 100 | > 100 | > 100 | > 100 | > 100 | > 100 | > 100 | > 100 | > 100 | > 100 | > 100 | > 100 | > 100 |  | > 100 | > 100 |
| O=C(COC(c1ccc(F)cc1)c1ccc(F)cc1)N1CCN(CCCc2ccccc2)CC1 | 10.5 | 11.3 | 17.3 |  | 13 | 18.6 | 14.7 | 17.8 | > 100 | 15.9 | 4.15 | 11.3 | > 100 | 13.4 | 13 | 7.91 | 15.2 | 26.3 | 13.7 | 13 |
| NC(=S)SC1=NNC2(C(=O)N1)c1ccccc1-c1ccccc12 | > 10 | > 10 | > 10 | > 10 | > 10 | > 10 |  | > 10 | > 10 | > 10 | > 10 | > 10 |  | > 10 | > 10 | > 10 | > 10 | > 10 | > 10 | > 10 |
| CCOc1cc(NC(C)=O)ccc1C(=O)N/N=C/c1ccco1 | > 100 | > 100 | > 100 | > 100 | > 100 | 31.3 | > 100 | > 100 | > 100 | > 100 | > 100 | > 100 | 74.6 | > 100 | > 100 | > 100 |  | > 100 | > 100 | > 100 |
| COc1cc(S(=O)(=O)N/N=C/C=C/c2ccccc2)c(OC)cc1NC(C)=O | > 100 | > 100 | 81.7 | > 100 |  | > 100 | > 100 |  | > 100 | > 100 | > 100 | > 100 |  | > 100 | > 100 | > 100 | > 100 | 60.9 | > 100 | > 100 |
| C/C(=N\N=C(\N)OB(F)F)c1ccccn1 | > 100 | > 100 | > 100 | 55.7 | > 100 | > 100 | > 100 | > 100 | > 100 | > 100 | > 100 | > 100 |  | > 100 | > 100 | > 100 | > 100 |  | > 100 | > 100 |
| CSc1sc(C)cc1-c1nsc(=O)o1 | > 100 | > 100 |  |  | > 100 | > 100 | > 100 |  | > 100 | > 100 | > 100 | > 100 | > 100 | > 100 | > 100 | > 100 | > 100 | > 100 | > 100 | > 100 |
| CC(C)N(CCCNc1c2ccccc2nc2cccc([N+](=O)[O-])c12)C(C)C | 0.391 | < 0.0508 | < 0.0437 | 0.149 | < 0.01 | 11.8 |  |  | < 0.01 |  | 0.593 |  |  | < 0.01 | < 0.018 | < 0.0183 | 0.0473 | < 0.0192 | < 0.0301 | < 0.0457 |
